Literature values in US9961900B2, “Herbicide formulations” (priority 2012, dated 2018).
Like-named read-outs stand apart in the source and are kept apart here.

How the values were obtained:
[1] = not given; remark: listed apart in the source
[2] = not given; remark: listed apart in the source

## C[C@@H](Oc1ccc(Oc2ncc(C(F)(F)F)cc2Cl)cc1)C(=O)O [haloxyfop-P, (R)-2-{4-[3-chloro-5-(trifluoromethyl)-2-pyridyloxy]phenoxy}propionic acid]
pH 7
  Aqueous photolysis DT50: Aqueous photolysis DT50 at pH 7: 12 days

## CCOC(=O)C(C)Oc1ccc(Oc2cnc3cc(Cl)ccc3n2)cc1 (racemic) [quizalofop-ethyl, ethyl (2RS)-2-[4-(6-chloroquinoxalin-2-yloxy)phenoxy]propionate]
[1]; pH 3
  Stability in aqueous media: Stable at pH 3-7 ^+

## CCS[C@H](C)C[C@H]1CC(=O)C(C(CC)=NOC/C=C/Cl)=C(O)C1 (racemic) [clethodim, (5RS)-2-{(1EZ)-1-[(2E)-3-chloroallyloxyimino]propyl}-5-[(2RS)-2-(ethylthio)propyl]-3-hydroxycyclohex-2-en-1-one]
pH 5, 25° C.
  Aqueous photolysis DT50: 1.6 days
pH 7, 25° C.
  Aqueous photolysis DT50: Aqueous photolysis DT50 at pH 7: 5.45 days (25° C.)
pH 9, 25° C.
  Aqueous photolysis DT50: 7.79 days

## C[C@@H](Oc1ccc(Oc2cnc3cc(Cl)ccc3n2)cc1)C(=O)OCC1CCCO1 (stereo partly drawn) [quizalofop-P-tefuryl]
pH 7
  Aqueous photolysis DT50: Aqueous photolysis DT50 at pH 7: 1.0 days
[1]; 20° C. and pH 7
  Aqueous hydrolysis (DT50): Aqueous hydrolysis DT50 at 20 °C and pH 7: 18.2 days
[1]; pH 5.1, 22° C.
  Hydrolysis DT50: 8.2 days
[1]; pH 9.2, 22° C.
  Hydrolysis DT50: 0.3 days

## CC(Oc1ccc(Oc2ncc(C(F)(F)F)cc2Cl)cc1)C(=O)O (racemic) [haloxyfop, (RS)-2-{4-[3-chloro-5-(trifluoromethyl)-2-pyridyloxy]phenoxy}propionic acid]
pH 7
  Aqueous photolysis DT50: Aqueous photolysis DT50 at pH 7: 12 days
[1]; 20° C. and pH 7
  Aqueous hydrolysis (DT50): Stable

## CCOC(=O)C(C)Oc1ccc(Oc2nc3ccc(Cl)cc3s2)cc1 (racemic) [fenthiaprop-ethyl, ethyl (RS)-2-[4-(6-chloro-1,3-benzothiazol-2-yloxy)phenoxy]propionate]
[2]
  Solubility in acetone: In acetone, ethyl acetate, toluene, >500 g/kg;
  Solubility in cyclohexane: > 40 g/kg
  Solubility in ethanol: > 50 mg/mL
  Solubility in ethyl acetate: In acetone, ethyl acetate, toluene, >500 g/kg;
  Solubility in n-octanol: > 50 mg/mL
  Solubility in toluene: In acetone, ethyl acetate, toluene, >500 g/kg;
  Solubility in water: Water: 0.8 mg/L

## CCCC(=NOCC)C1=C(O)C[C@@H]([C@H]2CCCSC2)CC1=O (racemic) [cycloxydim, (5RS)-2-[(EZ)-1-(ethoxyimino)butyl]-3-hydroxy-5-[(3RS)-thian-3-yl]cyclohex-2-en-1-one]
pH 7
  Aqueous photolysis DT50: Aqueous photolysis DT50 at pH 7: 0.05 days ^+

## C=CCO/N=C(\CCC)C1=C(O)CC(C)(C)C(C(=O)OC)C1=O (racemic) [aloxydim, methyl (1RS)-3-[(E)-1-(allyloxyimino)butyl]-4-hydroxy-6,6-dimethyl-2-oxocyclohex-3-enecarboxylate]
pH 7
  Aqueous photolysis DT50: Aqueous photolysis DT50 at pH 7: 0.22 days ^+

## COc1cc(OC)nc(NC(=O)NS(=O)(=O)c2ncccc2C(=O)N(C)C)n1 [nicosulfuron]
At pH 7
  Photolytic stability DT50: DT50: 202 d
[1]; at pH 5
  Aqueous hydrolysis (DT50): 15 days
[1]; at pH 7
  Aqueous hydrolysis (DT50): Stable

## CC(C)=NOCCOC(=O)[C@@H](C)Oc1ccc(Oc2cnc3cc(Cl)ccc3n2)cc1 [propaquizafop, 2-isopropylideneaminooxyethyl (R)-2-[4-(6-chloroquinoxalin-2-yloxy)phenoxy]propionate]
[1]; pH 5, 25° C.
  Hydrolytic DT50: 10.5 days
[1]; pH 7, 25° C.
  Hydrolytic DT50: 32.0 days
[1]; pH 9, 25° C.
  Hydrolytic DT50: 0.538 days

## COc1cnc(OC)n2nc(NS(=O)(=O)c3c(OCC(F)F)cccc3C(F)(F)F)nc12 [penoxsulam]
pH 7
  Photolytic stability DT50: DT50: 2 d (at pH 7)
[1]; at pH 7 and 20° C.
  Aqueous hydrolysis: Stable (at pH 7 and 20° C.)

## Cc1ccn2nc(S(=O)(=O)Nc3c(F)cccc3F)nc2n1 [flumetsulam]
pH 7
  Photolytic stability DT50: DT50: 270 d

## CCCC(=NOCC)C1=C(O)C[C@@H](C[C@@H](C)SCC)CC1=O (racemic) [sethoxydim, (5RS)-2-[(EZ)-1-(ethoxyimino)butyl]-5-[(2RS)-2-(ethylthio)propyl]-3-hydroxycyclohex-2-en-1-one]
pH 7
  Aqueous photolysis DT50: Aqueous photolysis DT50 at pH 7: 0.02 days ^+
